From patent US20260219274A1, “POLYOL SWEETNERS AND CARDIOVASCULAR AND THROMBOTIC EVENT RISK” (THE CLEVELAND CLINIC FOUNDATION, priority 2023, published 2026)

Experiments:
[1] = test system: stable subjects undergoing elective diagnostic cardiac evaluations (Discovery Cohort); conditions: in vivo
Excerpt: Our first study employed a Discovery Cohort, where we used untargeted metabolomics (semi-quantitative analyses) to analyze plasma samples from 1,157 stable subjects to identify circulating analytes whose levels were associated with future development of adverse cardiovascular events over an ensuing 3 year period. The Discovery Cohort included sequential stable patients (ages 18 years or above) undergoing elective diagnostic coronary angiography for risk evaluation at a quaternary referral center between 2001 and 2007 (GeneBank at the Cleveland Clinic; clinicaltrials.gov identifier: NCT00590200) with clinical and longitudinal outcomes.
In both, the Discovery and Validation Cohorts, Major Adverse Cardiovascular Events (MACE) were defined as death, nonfatal myocardial infarction, or nonfatal cerebrovascular accident (stroke) during follow-up. Adjudicated long term survival data were collected through medical records review and Social Security Death Index query. Cardiovascular disease (CVD) was indicated as presence of peripheral artery disease or coronary artery disease, indicated as any clinical history of myocardial infarction, coronary revascularization (including percutaneous coronary intervention, coronary artery bypass surgery), or angiographic evidence of significant stenosis (≥50%) in 1 or more major coronary arteries. Estimated glomerular filtration rate (eGFR) in both cohorts was calculated based on the recent Chronic Kidney Disease Epidemiology Collaboration 2021 CKD-EPI Creatinine equation.^37 Platelet-related hematology analyses were performed with an Advia 120 hematology analyzer (Siemens, New York, NY).^38 Use of anti-platelet agents (=1556) was defined as either aspirin or a P2Y12 agent or both. All observational studies in this example are reported in compliance with the STrengthening the Reporting of Observational studies in Epidemiology (STROBE)-Statement.^39 Information on gender of study participants of the Discovery and Validation Cohorts is reported in Table 1-3.
For untargeted mass spectrometry analyses, subject plasma samples were derivatized and run on GC-MS analyses as previously described.^19 Raw data files were processed using the metabolomics BinBase database.^45
Continuous variables are summarized as median (interquartile range [IQR]), and categorical variables are presented as %. Difference between groups (e.g. tertiles or quartiles) were examined using Kruskal Wallis test for continuous variables and chisq (χ^2) test for categorical variables. Kaplan-Meier analysis with Cox proportional-hazards regression was used for time-to-event analysis to determine hazard ratios (HR) and 95% confidence intervals (CI) for incident MACE. Adjustments included traditional cardiovascular risk factors (age, sex, diabetes mellitus, systolic blood pressure, low-density lipoprotein cholesterol levels, high-density lipoprotein cholesterol levels, triglyceride levels, smoking status) and high-sensitivity C-reactive protein (hsCRP). We confirmed that the proportionality hazards assumptions were met using the Schoenfeld residuals against the transformed time. Mann-Whitney U-test or Wilcoxon matched-pairs signed rank test were applied to continuous variables to examine differences between 2 groups. Kruskal-Wallis test with Dunn's post hoc test was used for pairwise multiple comparisons of ranked data. Two-way ANOVA with Šidák's multiple comparison post hoc test was used for multiple-group comparisons of aggregometry responses using different concentrations of agonists. For analysis of collagen-dependent platelet adhesion in whole blood, a two-way repeated measures ANOVA with Sidák's multiple comparison post hoc test was used. All reported measurements represent distinct samples. Data analyses were performed with R software (version 4.0.2) and GraphPad Prism software (version 9.1.2). A two-sided P<0.05 was considered statistically significant. […]

[2] = test system: human platelet-rich plasma; assay: Aggregometry in platelet-rich plasma; type: cell-based; conditions: PRP incubated with the polyol versus vehicle, submaximal agonist
Method: Aggregometry in platelet rich plasma (PRP) was performed as previously described^40 and outlined in supplemental methods.
Platelet rich plasma (PRP) was isolated as previously described.^5 Whole blood was drawn from healthy donors and anticoagulated with sodium citrate (0.109 M). PRP was prepared by centrifuging at 100×g for 10 min at 22° C. Platelet poor plasma (PPP) was obtained by additional centrifugation of the remaining blood samples at 11,000×g for 2 min. Next, platelets were counted with a hemocytometer and the platelet concentration adjusted to 2×10^8/mL using PPP. PRPs were then pre-incubated with xylitol (Catalogue #X3375-5G, Sigma, St. Louis, MO, USA) at indicated concentrations or vehicle (saline) for 30 min at 22° C. After exposure to xylitol or vehicle, PRPs were maintained in suspension with constant stirring (600 rpm) at 37° C. Subsequently, platelet aggregation was induced by adding the agonists ADP (up to 5 μM, Catalogue #384, Chronolog, Havertown, PA, US) or TRAP6 (TFLLR-NH2, up to 10 μM, Catalogue #464, Tocris, Bristol, UK). For all platelet aggregometry experiments, blood was always processed within approx. 30 minutes of collection, and isolated platelets were used within 120 minutes of isolation. When used, pairs of vehicle vs. xylitol incubated PRP were always incubated and analyzed together (beginning, middle, end of platelet prep use) and after 120 minutes post isolation, PRPs were not used anymore.
Platelet rich plasma (PRP) and platelet poor plasma (PPP) was prepared as previously described with sodium citrate (0.109 M) as anticoagulant^51. Platelets were counted and concentrations adjusted to 2×10^8/mL with PPP. PRPs were pre-incubated with erythritol (Catalogue #E7500, Sigma, St. Louis, MO, USA), glucose (Catalogue #G7021, Sigma, St. Louis, MO, USA) or 1,5-AHG (Catalogue #29874, Cayman Chemical, Ann Arbor, Michigan, USA) (at indicated concentrations) or vehicle (saline) for 30 min at 22° C. After pre-incubation PRPs were maintained in suspension with constant stirring (600 rpm) at 37° C. and platelet aggregation was initiated using ADP (up to 5 μM, Catalogue #384, Chronolog, Havertown, PA, US) or TRAP6 (TFLLR-NH2, up to […], Catalogue #464, Tocris, Bristol, UK).

[3] = test system: platelets of healthy volunteers; assay: Erythritol or glucose ingestion: platelet aggregation and granule release; type: in vivo, human
Method: (§1) This single center trial was approved by the Cleveland Clinic Institutional Review Board (clinicaltrials.gov identifier NCT04731363). Following subject consent (nonsmokers without CVD, hypertension, or diabetes), blood was drawn after overnight fast and 30 min following consumption of water containing 30 g of […] glucose (n=10, 30.1±11 years of age, 40% male), or erythritol (n=10, 30.5±8 years of age, 50% male), a quantity commonly found in erythritol-sweetened foods and the daily intake of some subjects based on 2013-2014 National Health and Nutrition Examination Survey (NHANES) data and FDA filings.(4,5).
(§2) Following erythritol consumption, postprandial circulating erythritol levels (assessed using stable-isotope-dilution liquid-chromatography tandem mass spectrometry (LC/MS/MS)3) were >1000-fold increased compared to baseline levels (median[inter quartile range], 6480[5930-7300]μM versus 3.75[3.35-3.87]μM, P<0.0001). In contrast, circulating erythritol levels remained similar before versus after glucose consumption (3.0[2.6-4.0]μM versus 2.9[2.7-3.8]μM, P=0.87; glucose levels before versus after 86.5(81.8-93.0) versus 127.0(122.3-132.3), P=0.002). […] In contrast, glucose consumption had no effect on platelet aggregation.

clinical = conditions: both, human, in vivo
Method: as §1, §2

glucose levels (clinical) | glucose levels (clinical; 30 min) | SMILES | association with cardiovascular event risks / MACE [1] | stimulus-dependent platelet aggregation response to ADP and TRAP6 [2] | platelet aggregation responses to ADP and TRAP6 after ingestion ([3]; 30 min after 30 g vs baseline) | stimulus-dependent release of alpha granule marker CXCL4 ([3]; TRAP6 (7.5 μM), ADP (2.0 μM), after ingestion) | stimulus-dependent release of dense granule marker serotonin ([3]; TRAP6 and ADP, after ingestion)
– | – | OC[C@H]1OC[C@H](O)[C@@H](O)[C@@H]1O [1,5-AHG, 1,5-anhydroglucitol, reference compound] | negatively associated | no effect | – | – | –
86.5(81.8-93.0) | 127.0(122.3-132.3) | O=C[C@H](O)[C@@H](O)[C@H](O)[C@H](O)CO [glucose, reference compound] | – | no effect | no effect | no differences | no differences
